Measurements as given in patent US9529005B2, “Modulating bacterial MAM polypeptides in pathogenic disease” (priority 2011, dated 2016).
≈ marks a conversion by molar mass, not a printed value. Where two headings read alike, the source gives them in different places.

Columns and labels:
Experiment in all cases: Antimicrobial susceptibility testing (MIC), BD Phoenix Automated Microbiology System; for interpretation of the result: key: R, resistant; I, intermediate; S, susceptible; R*: *As a rule, when ESBL is detected, an interpretation of susceptible or intermediate for penicillins, cephalosporins and aztreonam is reported as resistant
Assay type in all cases: cell-based
[1] = system: Acinetobacter baumannii; settings: for MIC: Acinetobacter baumannii; for interpretation of the result: key: R, resistant; I, intermediate; S, susceptible; R*: *As a rule, when ESBL is detected, an interpretation of susceptible or intermediate for penicillins, cephalosporins and aztreonam is reported as resistant
Text: (§1) The inventors performed antimicrobial susceptibility testing (AST) by determining the minimal inhibiting concentration (MIC) of a panel of antimicrobials on all twenty bacterial isolates using the BD Phoenix Automated Microbiology System (Table 3). Antimicrobial panels included several drugs from each of the four most commonly used classes of antimicrobials, aminoglycosides, β-lactams, carbapenems and fluoroquinolones. The panels also included antimicrobials from other classes, such as trimethoprim/sulfamethoxazole, but resistance to these was not considered in the classification of isolates as multidrug-resistant.

[2] = system: Klebsiella ssp.; settings: for MIC: Klebsiella; for interpretation of the result: key: R, resistant; I, intermediate; S, susceptible; R*: *As a rule, when ESBL is detected, an interpretation of susceptible or intermediate for penicillins, cephalosporins and aztreonam is reported as resistant
Text: as §1

[3] = system: Pseudomonas aeruginosa; settings: for MIC: Pseudomonas aeruginosa; for interpretation of the result: key: R, resistant; I, intermediate; S, susceptible; R*: *As a rule, when ESBL is detected, an interpretation of susceptible or intermediate for penicillins, cephalosporins and aztreonam is reported as resistant
Text: as §1

[4] = system: Escherichia coli; settings: for MIC: Escherichia coli
Text: as §1

[5] = Acinetobacter baumannii isolate 1
[6] = Acinetobacter baumannii isolate 2
[7] = Acinetobacter baumannii isolate 3
[8] = Acinetobacter baumannii isolate 4
[9] = Acinetobacter baumannii isolate 5
[10] = Pseudomonas aeruginosa isolate 1
[11] = Pseudomonas aeruginosa isolate 2
[12] = Pseudomonas aeruginosa isolate 3
[13] = Pseudomonas aeruginosa isolate 4
[14] = Pseudomonas aeruginosa isolate 5
[15] = read-out: minimal inhibiting concentration
[16] = read-out: minimal inhibiting concentration, Klebsiella ssp. isolate 2
[17] = read-out: minimal inhibiting concentration, Klebsiella ssp. isolate 3
[18] = read-out: minimal inhibiting concentration, Klebsiella ssp. isolate 4
[19] = read-out: minimal inhibiting concentration, Pseudomonas aeruginosa isolate 1
[20] = read-out: minimal inhibiting concentration, Pseudomonas aeruginosa isolate 2
[21] = read-out: minimal inhibiting concentration, Pseudomonas aeruginosa isolate 3
[22] = read-out: minimal inhibiting concentration, Pseudomonas aeruginosa isolate 4
[23] = read-out: minimal inhibiting concentration, Pseudomonas aeruginosa isolate 5
[24] = read-out: minimal inhibiting concentration, Escherichia coli isolate 1
[25] = read-out: minimal inhibiting concentration, Escherichia coli isolate 2
[26] = read-out: minimal inhibiting concentration, Escherichia coli isolate 3
[27] = read-out: minimal inhibiting concentration, Escherichia coli isolate 4
[28] = read-out: minimal inhibiting concentration, Escherichia coli isolate 5

Compound: NCC[C@H](O)C(=O)N[C@@H]1C[C@H](N)[C@@H](O[C@H]2O[C@H](CN)[C@@H](O)[C@H](O)[C@H]2O)[C@H](O)[C@H]1O[C@H]1O[C@H](CO)[C@@H](O)[C@H](N)[C@H]1O [Amik., Amikacin]
- interpretation of the result [1, 5]: R
- minimal inhibiting concentration [1, 5]: > 32 µg/mL
- interpretation of the result [1, 6]: R
- minimal inhibiting concentration [1, 6]: > 32 µg/mL
- interpretation of the result [1, 7]: I
- minimal inhibiting concentration [1, 7]: 32 µg/mL (≈ 54.6 µM)
- interpretation of the result [1, 8]: R
- minimal inhibiting concentration [1, 8]: > 32 µg/mL
- interpretation of the result [1, 9]: R
- minimal inhibiting concentration [1, 9]: > 32 µg/mL
- interpretation of the result ([2]; Klebsiella ssp. isolate 1): S
- minimal inhibiting concentration ([2]; Klebsiella ssp. isolate 1): ≤ 8 µg/mL
- interpretation of the result ([2]; Klebsiella ssp. isolate 2): S
- minimal inhibiting concentration ([2]; Klebsiella ssp. isolate 2): ≤ 8 µg/mL
- interpretation of the result ([2]; Klebsiella ssp. isolate 3): S
- minimal inhibiting concentration ([2]; Klebsiella ssp. isolate 3): ≤ 8 µg/mL
- interpretation of the result ([2]; Klebsiella ssp. isolate 4): S
- minimal inhibiting concentration ([2]; Klebsiella ssp. isolate 4): ≤ 8 µg/mL
- interpretation of the result ([2]; Klebsiella ssp. isolate 5): R
- minimal inhibiting concentration ([2]; Klebsiella ssp. isolate 5): > 32 µg/mL
- interpretation of the result [3, 10]: S
- minimal inhibiting concentration [3, 10]: ≤ 8 µg/mL
- interpretation of the result [3, 11]: S
- minimal inhibiting concentration [3, 11]: 16 µg/mL (≈ 27.3 µM)
- interpretation of the result [3, 12]: S
- minimal inhibiting concentration [3, 12]: 16 µg/mL (≈ 27.3 µM)
- interpretation of the result [3, 13]: I
- minimal inhibiting concentration [3, 13]: 32 µg/mL (≈ 54.6 µM)
- interpretation of the result [3, 14]: I
- minimal inhibiting concentration [3, 14]: 32 µg/mL (≈ 54.6 µM)
- interpretation of the result ([4]; Escherichia coli isolate 1): S
- minimal inhibiting concentration ([4]; Escherichia coli isolate 1): ≤ 8 µg/mL
- interpretation of the result ([4]; Escherichia coli isolate 2): S
- minimal inhibiting concentration ([4]; Escherichia coli isolate 2): ≤ 8 µg/mL
- interpretation of the result ([4]; Escherichia coli isolate 3): S
- minimal inhibiting concentration ([4]; Escherichia coli isolate 3): ≤ 8 µg/mL
- interpretation of the result ([4]; Escherichia coli isolate 4): S
- minimal inhibiting concentration ([4]; Escherichia coli isolate 4): ≤ 8 µg/mL
- interpretation of the result ([4]; Escherichia coli isolate 5): S
- minimal inhibiting concentration ([4]; Escherichia coli isolate 5): ≤ 8 µg/mL

Compound: CC1(C)S[C@@H]2[C@H](NC(=O)[C@H](N)c3ccccc3)C(=O)N2[C@H]1C(=O)O [Amp., Ampicillin]
- interpretation of the result [1, 5]: R
- interpretation of the result [1, 6]: R
- interpretation of the result [1, 7]: R
- interpretation of the result [1, 8]: R
- interpretation of the result [1, 9]: R
- MIC ([1]; read-out: minimal inhibiting concentration, Acinetobacter baumannii isolate 1): > 16 µg/mL
- MIC ([1]; read-out: minimal inhibiting concentration, Acinetobacter baumannii isolate 2): > 16 µg/mL
- MIC ([1]; read-out: minimal inhibiting concentration, Acinetobacter baumannii isolate 3): > 16 µg/mL
- MIC ([1]; read-out: minimal inhibiting concentration, Acinetobacter baumannii isolate 4): > 16 µg/mL
- MIC ([1]; read-out: minimal inhibiting concentration, Acinetobacter baumannii isolate 5): > 16 µg/mL
- interpretation of the result ([2]; Klebsiella ssp. isolate 1): R
- interpretation of the result ([2]; Klebsiella ssp. isolate 2): R
- minimal inhibiting concentration ([2]; Klebsiella ssp. isolate 2): > 16 µg/mL
- interpretation of the result ([2]; Klebsiella ssp. isolate 3): R
- minimal inhibiting concentration ([2]; Klebsiella ssp. isolate 3): > 16 µg/mL
- interpretation of the result ([2]; Klebsiella ssp. isolate 4): R
- minimal inhibiting concentration ([2]; Klebsiella ssp. isolate 4): > 16 µg/mL
- interpretation of the result ([2]; Klebsiella ssp. isolate 5): R
- minimal inhibiting concentration ([2]; Klebsiella ssp. isolate 5): > 16 µg/mL
- MIC [2, 15]: > 16 µg/mL
- interpretation of the result [3, 10]: R
- interpretation of the result [3, 11]: R
- minimal inhibiting concentration [3, 11]: > 16 µg/mL
- interpretation of the result [3, 12]: R
- minimal inhibiting concentration [3, 12]: > 16 µg/mL
- interpretation of the result [3, 13]: R
- minimal inhibiting concentration [3, 13]: > 16 µg/mL
- interpretation of the result [3, 14]: R
- minimal inhibiting concentration [3, 14]: > 16 µg/mL
- MIC [3, 15]: > 16 µg/mL
- interpretation of the result ([4]; Escherichia coli isolate 1): R
- interpretation of the result ([4]; Escherichia coli isolate 2): R
- minimal inhibiting concentration ([4]; Escherichia coli isolate 2): > 16 µg/mL
- interpretation of the result ([4]; Escherichia coli isolate 3): R
- minimal inhibiting concentration ([4]; Escherichia coli isolate 3): > 16 µg/mL
- interpretation of the result ([4]; Escherichia coli isolate 4): R
- minimal inhibiting concentration ([4]; Escherichia coli isolate 4): > 16 µg/mL
- interpretation of the result ([4]; Escherichia coli isolate 5): R
- minimal inhibiting concentration ([4]; Escherichia coli isolate 5): > 16 µg/mL
- MIC [4, 15]: > 16 µg/mL

Compound: Cc1nnc(SCC2=C(C(=O)O)N3C(=O)[C@@H](NC(=O)Cn4cnnn4)[C@H]3SC2)s1 [Cefa., Cefazolin]
- interpretation of the result ([2]; Klebsiella ssp. isolate 2): R
- interpretation of the result ([2]; Klebsiella ssp. isolate 3): R
- interpretation of the result ([2]; Klebsiella ssp. isolate 4): R
- MIC [2, 16]: > 16 µg/mL
- MIC [2, 17]: > 16 µg/mL
- MIC [2, 18]: > 16 µg/mL
- interpretation of the result [3, 10]: R
- interpretation of the result [3, 11]: R
- interpretation of the result [3, 12]: R
- interpretation of the result [3, 13]: R
- interpretation of the result [3, 14]: R
- MIC [3, 19]: > 16 µg/mL
- MIC [3, 20]: > 16 µg/mL
- MIC [3, 21]: > 16 µg/mL
- MIC [3, 22]: > 16 µg/mL
- MIC [3, 23]: > 16 µg/mL
- interpretation of the result ([4]; Escherichia coli isolate 1): R
- interpretation of the result ([4]; Escherichia coli isolate 2): R
- interpretation of the result ([4]; Escherichia coli isolate 3): R
- interpretation of the result ([4]; Escherichia coli isolate 4): R
- interpretation of the result ([4]; Escherichia coli isolate 5): R
- MIC [4, 24]: > 16 µg/mL
- MIC [4, 25]: > 16 µg/mL
- MIC [4, 26]: > 16 µg/mL
- MIC [4, 27]: > 16 µg/mL
- MIC [4, 28]: > 16 µg/mL

Compound: CO/N=C(\C(=O)N[C@@H]1C(=O)N2C(C(=O)O)=C(CSc3nc(=O)c(=O)[nH]n3C)CS[C@H]12)c1csc(N)n1 [Co., Ceftriaxone]
- interpretation of the result ([2]; Klebsiella ssp. isolate 2): R
- interpretation of the result ([2]; Klebsiella ssp. isolate 3): R
- interpretation of the result ([2]; Klebsiella ssp. isolate 4): R
- MIC [2, 16]: > 32 µg/mL
- MIC [2, 17]: 16 µg/mL (≈ 28.9 µM)
- MIC [2, 18]: > 32 µg/mL
- interpretation of the result [3, 10]: R
- interpretation of the result [3, 11]: R
- interpretation of the result [3, 12]: R
- interpretation of the result [3, 13]: R
- interpretation of the result [3, 14]: R
- MIC [3, 19]: > 32 µg/mL
- MIC [3, 20]: > 32 µg/mL
- MIC [3, 21]: > 32 µg/mL
- MIC [3, 22]: > 32 µg/mL
- MIC [3, 23]: > 32 µg/mL
- interpretation of the result ([4]; Escherichia coli isolate 1): R
- interpretation of the result ([4]; Escherichia coli isolate 2): R
- interpretation of the result ([4]; Escherichia coli isolate 3): R
- interpretation of the result ([4]; Escherichia coli isolate 4): R
- interpretation of the result ([4]; Escherichia coli isolate 5): R
- MIC [4, 24]: > 32 µg/mL
- MIC [4, 25]: > 32 µg/mL
- MIC [4, 26]: > 32 µg/mL
- MIC [4, 27]: > 32 µg/mL
- MIC [4, 28]: > 32 µg/mL

Compound: CO[C@@]1(NC(=O)Cc2cccs2)C(=O)N2C(C(=O)O)=C(COC(N)=O)CS[C@@H]21 [Cx., Cefoxitin]
- interpretation of the result ([2]; Klebsiella ssp. isolate 2): S
- interpretation of the result ([2]; Klebsiella ssp. isolate 3): R
- interpretation of the result ([2]; Klebsiella ssp. isolate 4): S
- MIC [2, 16]: ≤ 4 µg/mL
- MIC [2, 17]: > 16 µg/mL
- MIC [2, 18]: 8 µg/mL (≈ 18.7 µM)
- interpretation of the result [3, 10]: R
- interpretation of the result [3, 11]: R
- interpretation of the result [3, 12]: R
- interpretation of the result [3, 13]: R
- interpretation of the result [3, 14]: R
- MIC [3, 19]: > 16 µg/mL
- MIC [3, 20]: > 16 µg/mL
- MIC [3, 21]: > 16 µg/mL
- MIC [3, 22]: > 16 µg/mL
- MIC [3, 23]: > 16 µg/mL
- interpretation of the result ([4]; Escherichia coli isolate 1): S
- interpretation of the result ([4]; Escherichia coli isolate 2): S
- interpretation of the result ([4]; Escherichia coli isolate 3): S
- interpretation of the result ([4]; Escherichia coli isolate 4): R
- interpretation of the result ([4]; Escherichia coli isolate 5): S
- MIC [4, 24]: 8 µg/mL (≈ 18.7 µM)
- MIC [4, 25]: ≤ 4 µg/mL
- MIC [4, 26]: 8 µg/mL (≈ 18.7 µM)
- MIC [4, 27]: > 16 µg/mL
- MIC [4, 28]: 8 µg/mL (≈ 18.7 µM)

Compound: Piperacillin-Tazobactam [PipT.]
- interpretation of the result ([2]; Klebsiella ssp. isolate 2): I
- minimal inhibiting concentration ([2]; Klebsiella ssp. isolate 2): 32/4
- interpretation of the result ([2]; Klebsiella ssp. isolate 3): S
- minimal inhibiting concentration ([2]; Klebsiella ssp. isolate 3): 16/4
- interpretation of the result ([2]; Klebsiella ssp. isolate 4): R
- minimal inhibiting concentration ([2]; Klebsiella ssp. isolate 4): 64/4
- interpretation of the result [3, 10]: R
- minimal inhibiting concentration [3, 10]: 64/4
- interpretation of the result [3, 11]: R
- minimal inhibiting concentration [3, 11]: 64/4
- interpretation of the result [3, 12]: R
- minimal inhibiting concentration [3, 12]: 64/4
- interpretation of the result [3, 13]: S
- minimal inhibiting concentration [3, 13]: 32/4
- interpretation of the result [3, 14]: R
- minimal inhibiting concentration [3, 14]: 64/4
- interpretation of the result ([4]; Escherichia coli isolate 1): I
- minimal inhibiting concentration ([4]; Escherichia coli isolate 1): 32/4
- interpretation of the result ([4]; Escherichia coli isolate 2): S
- minimal inhibiting concentration ([4]; Escherichia coli isolate 2): 2/4
- interpretation of the result ([4]; Escherichia coli isolate 3): I
- minimal inhibiting concentration ([4]; Escherichia coli isolate 3): 32/4
- interpretation of the result ([4]; Escherichia coli isolate 4): I
- minimal inhibiting concentration ([4]; Escherichia coli isolate 4): 16/4
- interpretation of the result ([4]; Escherichia coli isolate 5): I
- minimal inhibiting concentration ([4]; Escherichia coli isolate 5): 32/4
